Laboratory results published in PMC3853718 (Journal of Translational Medicine, 2013).
Read-outs that look alike come from different tables or passages of the source. Marks after values point to notes of the source that are not given here.

What was measured:
[1] = Plasma pharmacokinetics after 2-hour IV infusion (LC-MS/MS); details: for AUC(0-inf): read-out: AUC(I) Mean; for AUC(0-t): read-out: AUC(tf) Mean
[2] = tested on: solid tumors; assay: Tumor response by CT or MRI and RECIST; assay type: in vivo, human

CCc1cnn2c(NCc3ccc[n+]([O-])c3)cc(N3CCCC[C@H]3CCO)nc12 [dinaciclib]
Cmax Mean ([1]; Day 1, 3.63 mg/m^2, N 7 (n=6)): 210^i ng/mL | Tmax Median ([1]; Day 1, 3.63 mg/m^2, N 7 (n=6)): 1^i hr | Vd Mean ([1]; Day 1, 3.63 mg/m^2, N 7 (n=6)): 40.2^h L/m^2 | t½ Mean ([1]; Day 1, 3.63 mg/m^2, N 7 (n=6)): 2.9^h hr | CL Mean ([1]; Day 1, 5.08 mg/m^2, N 3): 15.9 L/hr/m^2 | Vd Mean ([1]; Day 1, 5.08 mg/m^2, N 3): 72.7 L/m^2 | CL Mean ([1]; Day 1, 7.11 mg/m^2, N 7): 14.1 L/hr/m^2 | Vd Mean ([1]; Day 1, 7.11 mg/m^2, N 7): 61.7 L/m^2 | CL Mean ([1]; Day 1, 10 mg/m^2, N 3): 16.1 L/hr/m^2 | Vd Mean ([1]; Day 1, 10 mg/m^2, N 3): 68.5 L/m^2 | CL Mean ([1]; Day 1, 12 mg/m^2, N 11): 12.1 L/hr/m^2 | Vd Mean ([1]; Day 1, 12 mg/m^2, N 11): 55.4 L/m^2 | CL Mean ([1]; Day 1, 14 mg/m^2, N 5): 9.24 L/hr/m^2 | Vd Mean ([1]; Day 1, 14 mg/m^2, N 5): 39.8 L/m^2 | CL Mean ([1]; Day 15, 0.33 mg/m^2, N 1): 7.67 L/hr/m^2 | Vd Mean ([1]; Day 15, 0.33 mg/m^2, N 1): 51 L/m^2 | t½ Mean ([1]; Day 15, 0.33 mg/m^2, N 1): 4.61 h | CL Mean ([1]; Day 15, 0.66 mg/m^2, N 1): 23.9 L/hr/m^2 | Vd Mean ([1]; Day 15, 0.66 mg/m^2, N 1): 57.6 L/m^2 | CL Mean ([1]; Day 15, 1.32 mg/m^2, N 1): 9.83 L/hr/m^2 | Vd Mean ([1]; Day 15, 1.32 mg/m^2, N 1): 48 L/m^2 | CL Mean ([1]; Day 15, 2.59 mg/m^2, N 3 (n=2)): 15.6^m L/hr/m^2 | Vd Mean ([1]; Day 15, 2.59 mg/m^2, N 3 (n=2)): 80.7^m L/m^2 | CL Mean ([1]; Day 15, 3.63 mg/m^2, N 6 (n=3)): 12.5° L/hr/m^2 | Vd Mean ([1]; Day 15, 3.63 mg/m^2, N 6 (n=3)): 71.6° L/m^2 | CL Mean ([1]; Day 15, 5.08 mg/m^2, N 2): 14.6 L/hr/m^2 | Cmax Mean ([1]; Day 15, 5.08 mg/m^2, N 2): 147 ng/mL | Tmax Median ([1]; Day 15, 5.08 mg/m^2, N 2): 2 h | Vd Mean ([1]; Day 15, 5.08 mg/m^2, N 2): 66.2 L/m^2 | t½ Mean ([1]; Day 15, 5.08 mg/m^2, N 2): 3.17 h | Cmax Mean ([1]; Day 15, 7.11 mg/m^2, N 7): 306 ng/mL | Tmax Median ([1]; Day 15, 7.11 mg/m^2, N 7): 1 h | CL Mean ([1]; Day 15, 7.11 mg/m^2, N 7 (n=6)): 12.4^q L/hr/m^2 | Vd Mean ([1]; Day 15, 7.11 mg/m^2, N 7 (n=6)): 49.9^q L/m^2 | t½ Mean ([1]; Day 15, 7.11 mg/m^2, N 7 (n=6)): 2.71^q hr | CL Mean ([1]; Day 15, 10 mg/m^2, N 3): 15.2 L/hr/m^2 | Cmax Mean ([1]; Day 15, 10 mg/m^2, N 3): 321 ng/mL | Tmax Median ([1]; Day 15, 10 mg/m^2, N 3): 2 h | Vd Mean ([1]; Day 15, 10 mg/m^2, N 3): 90.6 L/m^2 | t½ Mean ([1]; Day 15, 10 mg/m^2, N 3): 4.14 h | CL Mean ([1]; Day 15, 12 mg/m^2, N 10): 11.5 L/hr/m^2 | Cmax Mean ([1]; Day 15, 12 mg/m^2, N 10): 526 ng/mL | Tmax Median ([1]; Day 15, 12 mg/m^2, N 10): 2 h | Vd Mean ([1]; Day 15, 12 mg/m^2, N 10): 49.3 L/m^2 | t½ Mean ([1]; Day 15, 12 mg/m^2, N 10): 3.16 h | CL Mean ([1]; Day 15, 14 mg/m^2, N 4): 13.9 L/hr/m^2 | Cmax Mean ([1]; Day 15, 14 mg/m^2, N 4): 568 ng/mL | Tmax Median ([1]; Day 15, 14 mg/m^2, N 4): 2 h | Vd Mean ([1]; Day 15, 14 mg/m^2, N 4): 70.2 L/m^2 | t½ Mean ([1]; Day 15, 14 mg/m^2, N 4): 3.43 h | accumulation in plasma ([1]; days 1, 8, 15 of cycle 1 and day 1 of cycle 2): does not accumulate in plasma | AUC(0-inf) ([1]; Day 1, 0.33 mg/m^2, N 1): 26.7 ng·h/mL | AUC(0-inf) ([1]; Day 1, 0.66 mg/m^2, N 1): 35.7 ng·h/mL | AUC(0-inf) ([1]; Day 1, 2.59 mg/m^2, N 3 (n=2)): 214 ng·h/mL | AUC(0-inf) ([1]; Day 1, 3.63 mg/m^2, N 7 (n=6)): 458 ng·h/mL | AUC(0-inf) ([1]; Day 15, 5.08 mg/m^2, N 2): 354 ng·h/mL | AUC(0-inf) ([1]; Day 15, 7.11 mg/m^2, N 7 (n=6)): 686 ng·h/mL | AUC(0-inf) ([1]; Day 15, 10 mg/m^2, N 3): 722 ng·h/mL | AUC(0-inf) ([1]; Day 15, 12 mg/m^2, N 10): 1270 ng·h/mL | AUC(0-inf) ([1]; Day 15, 14 mg/m^2, N 4): 1180 ng·h/mL | AUC(0-t) ([1]; Day 1, 0.33 mg/m^2, N 1): 26.1 ng·h/mL | AUC(0-t) ([1]; Day 1, 0.66 mg/m^2, N 1): 35.3 ng·h/mL | AUC(0-t) ([1]; Day 1, 1.32 mg/m^2, N 1): 112 ng·h/mL | AUC(0-t) ([1]; Day 1, 2.59 mg/m^2, N 3): 809 ng·h/mL | AUC(0-t) ([1]; Day 1, 3.63 mg/m^2, N 7): 465 ng·h/mL | AUC(0-t) ([1]; Day 1, 10 mg/m^2, N 3): 681 ng·h/mL | AUC(0-t) ([1]; Day 15, 0.66 mg/m^2, N 1): 27.2 ng·h/mL | AUC(0-t) ([1]; Day 15, 2.59 mg/m^2, N 3): 739 ng·h/mL | AUC(0-t) ([1]; Day 15, 3.63 mg/m^2, N 6): 401 ng·h/mL | AUC(0-t) ([1]; Day 15, 7.11 mg/m^2, N 7): 710 ng·h/mL | AUC(0-t) ([1]; Day 15, 10 mg/m^2, N 3): 704 ng·h/mL | AUC(0-t) ([1]; Day 15, 12 mg/m^2, N 10): 1270 ng·h/mL | Number of cycles ([2]; Subject 2902, NSCLC, 0.66 mg/m^2, stable disease): 6 | Number of cycles ([2]; Subject 2910, Pseudomyxoma peritonei, 2.59 mg/m^2, stable disease): 9 | Number of cycles ([2]; Subject 2913, Prostate cancer, 3.63 mg/m^2, stable disease): 4 | Number of cycles ([2]; Subject 2920, Melanoma, 3.63 mg/m^2, stable disease): 10 | Number of cycles ([2]; Subject 2926, Sarcoma, 7.11 mg/m^2, stable disease): 12 | Number of cycles ([2]; Subject 2928, Gastrointestinal stromal tumor, 7.11 mg/m^2, stable disease): 10 | Number of cycles ([2]; Subject 2931, Esophageal carcinoma, 7.11 mg/m^2, stable disease): 11 | Number of cycles ([2]; Subject 2932, Adenoid cyst carcinoma, 7.11 mg/m^2, stable disease): 5 | Number of cycles ([2]; Subject 2937, Adenoid cyst carcinoma, 14.0 mg/m^2, stable disease): 8 | Number of cycles ([2]; Subject 2945, NSCLC, 12.0 mg/m^2, stable disease): 4 | subjects with prolonged SD for at least 4 cycles of treatment ([2]; all dose levels): at least 10 subjects | complete or partial responses (RECIST) ([2]; subjects with solid tumors, all dose levels): no observed complete or partial responses
